The values that follow come from article PMC6271890, “Synthesis and Antiproliferative Activity of Some Novel Triazole Derivatives from Dehydroabietic Acid” (Molecules, 2014).

The subject of series [1] is normal lung fibroblasts (MRC-5). Kind of series: Antiproliferative assay (MTT reduction), MRC-5 fibroblasts. Conditions: for IC50: Homo sapiens, MRC5, 72 h, MRC-5 normal lung fibroblasts, 3 days treatment, MTT, mean ± SD; for antiproliferative activity in words, MRC-5: MRC-5 fibroblasts. Set-up: key to antiproliferative activity in words, MRC-5: IC50 values > 100 µM were considered inactive. It counts as cell-based, human. The method, then:
(§1) All human cell lines used in this work were purchased from the American Type Culture Collection (ATCC, Manasas, VA, USA). […] All media were supplemented with 10% heat-inactivated FBS, 100 IU/mL penicillin and 100 µg/mL streptomycin. Cells were grown in a humidified incubator with 5% CO2 in air at 37 °C. For the antiproliferative assay, cells were plated at a density of 5 × 10^4 cells/mL. Cells were seeded in 96-well plates (100 µL/well). One day after seeding, cells were treated with medium containing the compounds at concentrations ranging from 0 up to 100 µM during 3 days. The compounds were dissolved in DMSO (1% final concentration) and complete medium. Untreated cells (medium containing 1% DMSO) were used as 100% viability controls. […] Each concentration was tested in sextuplicate and experiments were repeated 2 times. Cell viability was determined by means of the MTT reduction assay at the end of the incubation with the products. […] The software used was OriginPro 8.1 [23].

Series [2] deals with bladder carcinoma (J82) cells. As to the kind of experiment: Antiproliferative assay (MTT reduction), J82 cells. It is filed as cell-based, human. Conditions: for IC50: Homo sapiens, 72 h, J82 bladder carcinoma cells, 3 days treatment, MTT, mean ± SD. Further details: key to antiproliferative activity in words, J82: IC50 values > 100 µM were considered inactive. The method, then: (§2) All human cell lines used in this work were purchased from the American Type Culture Collection (ATCC, Manasas, VA, USA). Normal lung MRC-5 fibroblasts (CCL-171), SK-MES-1 lung cancer cells (HTB-58) and J82 bladder carcinoma cells (HTB-1) were grown as monolayers in minimum essential Eagle medium (MEM) with Earles’s salts, 2 mM L-glutamine and 1.5 g/L sodium bicarbonate. Gastric adenocarcinoma AGS cells (CRL-1739) were grown as monolayers in Ham F-12 medium containing 1 mM L-glutamine and 1.5 g/L sodium bicarbonate. All media were supplemented with 10% heat-inactivated FBS, 100 IU/mL penicillin and 100 µg/mL streptomycin. Cells were grown in a humidified incubator with 5% CO2 in air at 37 °C. For the antiproliferative assay, cells were plated at a density of 5 × 10^4 cells/mL. Cells were seeded in 96-well plates (100 µL/well). One day after seeding, cells were treated with medium containing the compounds at concentrations ranging from 0 up to 100 µM during 3 days. The compounds were dissolved in DMSO (1% final concentration) and complete medium. Untreated cells (medium containing 1% DMSO) were used as 100% viability controls. […] Each concentration was tested in sextuplicate and experiments were repeated 2 times. Cell viability was determined by means of the MTT reduction assay at the end of the incubation with the products. The results were transformed to percentage of controls and the IC50 value was obtained adjusting the dose-response curve to a sigmoidal model. The software used was OriginPro 8.1 [23].

The test system of series [3] is gastric epithelial adenocarcinoma (AGS) cells. Kind of series: Antiproliferative assay (MTT reduction), AGS cells. Further details: key to antiproliferative activity in words, AGS: IC50 values > 100 µM were considered inactive. It is filed as cell-based, human. Conditions: for IC50: Homo sapiens, 72 h, AGS gastric adenocarcinoma cells, 3 days treatment, MTT, mean ± SD. The method, then: as §2

Series [4] has as its system lung cancer (SK-MES-1) cells. As to the kind of experiment: Antiproliferative assay (MTT reduction), SK-MES-1 cells. It is filed as cell-based, human. Conditions: for IC50: Homo sapiens, 72 h, SK-MES-1 lung cancer cells, 3 days treatment, MTT, mean ± SD; for antiproliferative activity in words, SK-MES-1: SK-MES-1 cells. As for the experimental part:
as §1

For series [5], the system named is MCF-7, Hela and liver cancer 7721 cells. Further details: method as in PMID 21345546. Particulars: range over MCF-7, Hela and liver cancer 7721 cells; read-out: IC50 values (cytotoxicity); cited from earlier work.

Take `CC(C)c1ccc2c(c1)CCC1[C@](C)(C(=O)OCc3cn(-c4ccccc4)nn3)CCC[C@]21C` (some centres unmarked) [Compound 1, 18-((1-Phenyl-1H-1,2,3-triazol-4-yl)methyl)-8,11,13-abietatrienoate]: the IC50 in series [1] is 85.8 ± 4.6 µM; in series [2] it was 46.3 ± 2.3 µM; in series [3], 79.9 ± 4.8 µM; in series [4] it was 77.3 ± 4.7 µM.
In the case of `CC(C)c1ccc2c(c1)CCC1[C@](C)(C(=O)OCCc3cn(-c4ccccc4)nn3)CCC[C@]21C` (some centres unmarked) [Compound 2, 18-(2-(1-Phenyl-1H-1,2,3-triazol-4-yl)ethyl)-8,11,13-abietatrienoate], the IC50 in series [1] is above 100 µM; in series [2], 76.3 ± 5.9 µM; in series [3], 90.2 ± 5.4 µM; in series [4], above 100 µM. The “antiproliferative activity in words, MRC-5” value in series [1] was “inactive”. For the same molecule, in series [4], the “antiproliferative activity in words, SK-MES-1” value was “inactive”.
Consider `CC(C)c1ccc2c(c1)CCC1[C@](C)(C(=O)OCc3cn(CSc4ccccc4)nn3)CCC[C@]21C` (some centres unmarked) [Compound 3, 18-((((1-Phenylthio)methyl)-1H-1,2,3-triazol-4-yl)methyl)-8,11,13-abietatrienoate], for which the IC50 in series [1] was above 100 µM; in series [2], above 100 µM; in series [3] it was 94.4 ± 5.4 µM; in series [4], above 100 µM. Also, the “antiproliferative activity in words, MRC-5” value in series [1] is “inactive”. In series [4], the “antiproliferative activity in words, SK-MES-1” value was “inactive”.
In the case of `CC(C)c1ccc2c(c1)CCC1[C@](C)(C(=O)OCCc3cn(CSc4ccccc4)nn3)CCC[C@]21C` (some centres unmarked) [Compound 4, 18-(2-(((1-Phenylthio)methyl)-1H-1,2,3-triazol-4-yl)ethyl)-8,11,13-abietatrienoate], the IC50 in series [1] came out at 50.2 ± 3.1 µM; in series [2] it was 28.1 ± 1.7 µM; in series [3] it was 66 ± 4.4 µM; in series [4], 28.9 ± 2.1 µM.
On to `CC(C)c1ccc2c(c1)CCC1[C@](C)(COC(=O)CCc3cn(-c4ccccc4)nn3)CCC[C@]21C` (some centres unmarked) [Compound 5, 18-(3-(1-Phenyl-1H-1,2,3-triazol-4-yl)propanoyloxy)-8,11,13-abietatriene], for which the IC50 in series [1] turned out to be 17.1 ± 0.6 µM; in series [2] it was 83.3 ± 3.3 µM; in series [3], 44.5 ± 1.9 µM; in series [4], 6.1 ± 0.3 µM.
Regarding `CC(C)c1ccc2c(c1)CCC1[C@](C)(COC(=O)CCCCc3cn(-c4ccccc4)nn3)CCC[C@]21C` (some centres unmarked) [Compound 6, 18-(5-(1-Phenyl-1H-1,2,3-triazol-4-yl)pentanoyloxy)-8,11,13-abietatriene], the IC50 in series [1], in series [2], in series [3] and in series [4] was above 100 µM each time. In series [1], the “antiproliferative activity in words, MRC-5” value was “inactive”. In addition, the “antiproliferative activity in words, J82” value in series [2] (J82 cells) was “inactive”. Also, the “antiproliferative activity in words, AGS” value in series [3] (AGS cells) was “inactive”. The “antiproliferative activity in words, SK-MES-1” value in series [4] is “inactive”.
In the case of `CC(C)c1ccc2c(c1)CCC1[C@](C)(COC(=O)CCc3cn(Cc4ccccc4)nn3)CCC[C@]21C` (some centres unmarked) [Compound 7, 18-(3-(1-Benzyl-1H-1,2,3-triazol-4-yl)propanoyloxy)-8,11,13-abietatriene], the IC50 in series [1] was above 100 µM; in series [2], 25.6 ± 1.9 µM; in series [3], 36.7 ± 1.5 µM; in series [4], 39.7 ± 2.7 µM. The “antiproliferative activity in words, MRC-5” value in series [1] is “inactive”.
Taken in the same sequence, the figures for `CC(C)c1ccc2c(c1)CCC1[C@](C)(COC(=O)CCCCc3cn(Cc4ccccc4)nn3)CCC[C@]21C` (some centres unmarked) [Compound 8, 18-(5-(1-Benzyl-1H-1,2,3-triazol-4-yl)pentanoyloxy)-8,11,13-abietatriene] were above 100 µM, 26.8 ± 1.8 µM, 35.9 ± 1.7 µM, 37 ± 2.6 µM and “inactive”.
Consider `CC(C)c1ccc2c(c1)CCC1[C@](C)(COC(=O)CCc3cn(CSc4ccccc4)nn3)CCC[C@]21C` (some centres unmarked) [Compound 9, 18-(3-(((1-Phenylthio)methyl)-1H-1,2,3-triazol-4-yl)propanoyloxy)-8,11,13-abietatriene], for which the IC50 came out at 73.3 ± 3.7 µM in series [1], 49.9 ± 2.9 µM in series [2], 47.7 ± 2.9 µM in series [3] and 43.6 ± 2.9 µM in series [4].
For `CC(C)c1ccc2c(c1)CCC1[C@](C)(COC(=O)CCCCc3cn(CSc4ccccc4)nn3)CCC[C@]21C` (some centres unmarked) [Compound 10], the IC50 in series [1] was above 100 µM; in series [2] it was 33.9 ± 1.7 µM; in series [3], 58.9 ± 3.4 µM; in series [4], 42.7 ± 2.9 µM.
In the same order, the values of `COc1ccc(-n2cc(CCC(=O)OC[C@]3(C)CCC[C@]4(C)c5ccc(C(C)C)cc5CCC34)nn2)cc1` (some centres unmarked) [Compound 11, 18-(3-(1-(4-Anisidyl)-1H-1,2,3-triazol-4-yl)propanoyloxy)-8,11,13-abietatriene] are above 100 µM, above 100 µM, above 100 µM and above 100 µM.
In the same order, the values of `COc1ccc(-n2cc(CCCCC(=O)OC[C@]3(C)CCC[C@]4(C)c5ccc(C(C)C)cc5CCC34)nn2)cc1` (some centres unmarked) [Compound 12, 18-(5-(1-(4-Anisidyl)-1H-1,2,3-triazol-4-yl)pentanoyloxy)-8,11,13-abietatriene] are above 100 µM, above 100 µM, above 100 µM and above 100 µM.
Taken in the same sequence, the figures for `CC(C)c1ccc2c(c1)CCC1[C@](C)(COC(=O)CCc3cn(-c4cccc(Cl)c4)nn3)CCC[C@]21C` (some centres unmarked) [Compound 13, 18-(3-(1-(3-Chlorophenyl)-1H-1,2,3-triazol-4-yl)propanoyloxy)-8,11,13-abietatriene] were above 100 µM, above 100 µM, above 100 µM and above 100 µM.
As for `CC(C)c1ccc2c(c1)CCC1[C@](C)(COC(=O)CCCCc3cn(-c4cccc(Cl)c4)nn3)CCC[C@]21C` (some centres unmarked) [Compound 14, 18-(5-(1-(3-Chlorophenyl)-1H-1,2,3-triazol-4-yl)pentanoyloxy)-8,11,13-abietatriene], the IC50 in series [1], in series [2], in series [3] and in series [4] was above 100 µM in each case.
Take `Cc1ccc(S(=O)(=O)n2cc(CCC(=O)OC[C@]3(C)CCC[C@]4(C)c5ccc(C(C)C)cc5CCC34)nn2)cc1` (some centres unmarked) [Compound 15, 18-(3-(1-(4-Toluenesulfonyl)-1H-1,2,3-triazol-4-yl)propanoyloxy)-8,11,13-abietatriene]: the 50% inhibitory concentration (IC50) in series [1] is 82.9 ± 4.5 µM; in series [2], above 100 µM; in series [3] it was 74.9 ± 3.7 µM; in series [4], 84.4 ± 5.1 µM.
Take `Cc1ccc(S(=O)(=O)n2cc(CCCCC(=O)OC[C@]3(C)CCC[C@]4(C)c5ccc(C(C)C)cc5CCC34)nn2)cc1` (some centres unmarked) [Compound 16, 18-(5-(1-(4-Toluenesulfonyl)-1H-1,2,3-triazol-4-yl)pentanoyloxy)-8,11,13-abietatriene]: the IC50 in series [1] was found to be 68.8 ± 4.5 µM; in series [2] it was 75 ± 6.1 µM; in series [3] it was 56.9 ± 3.3 µM; in series [4], 74.2 ± 5.4 µM.
On to `COc1cc([C@@H]2c3cc4c(cc3[C@@H](O[C@@H]3O[C@@H]5CO[C@@H](C)O[C@H]5[C@H](O)[C@H]3O)[C@H]3COC(=O)[C@H]23)OCO4)cc(OC)c1O` [Etoposide, reference compound], for which the figures for the IC50 in series [2] and in series [3] were 3.49 ± 0.16 µM and 0.58 ± 0.02 µM, respectively.
In the case of `CN(C)CCN1C(=O)c2cccc3cc(N)cc(c23)C1=O` [amonafide], the IC50 in series [5] was 1.68 to 4.27 µM.
